According to patent US5541310A, “Herbicide resistant plants” (Ciba-Geigy Corporation, priority 1994, dated 1996):

How the values were obtained:
[1] = tested on: Leaf disks of transgenic Nicotiana tabacum lines IGPD-C, E, and G; assay: Leaf disk growth (weight) on MS agar containing IGPD inhibitor, transgenic lines versus wild type; assay type: in vivo, Nicotiana tabacum cv. Xanthi-nc; conditions: 30 ppm inhibitor on MS agar, after three weeks
Text: Leaf disks of Nicotiana tabacum cv. Xanthi-nc were infected with A. tumefaciens CIB542 harboring pCIB200IGPD as described by Horsch et al, Science 227:1229 (1985). Kanamycin-resistant shoots from 15 independent leaf disks were transferred to rooting medium, then transplanted to soil and the resulting plants grown to maturity in the greenhouse. Seed from these plants were collected and germinated on MS agar medium containing kanamycin. Ten individual kanamycin resistant seedlings from each independent primary transformant were grown to maturity in the greenhouse, and their seed collected. These seeds were germinated on MS agar medium conta/ning kanamycin.
Plant lines that gave rise to exclusively kanamycin resistant seedlings were homozygous for the inserted gene and were subjected to further analysis. Leaf disks of each of the 15 independent transgenie lines were excised with a paper punch and placed onto MS agar containing 0 or 30 ppm of a specific IGPD inhibitor represented by formula (II), namely: [drawing 11] After three weeks, two sets of 10 disks from each line were weighed, and the results recorded. Transgenie lines designated IGPD-C, E, and G were approximately 3-fold more resistant to the inhibitor than wild type, non-transformed plants.

[2] = tested on: IGPD-G (IGPD-overexpressing line); assay: Greenhouse plants treated with inhibitor, health visually scored; assay type: in vivo, Nicotiana tabacum cv. Xanthi-nc; parameters: key: 1 = severe stunting, severe chlorosis combined with necrosis; 2 = severe stunting, some interveinal chlorosis; 3 = moderate stunting, some interveinal chlorosis, pinnate leaves; 4 = moderate stunting, normal leaf morphology; 5 = healthy, with no symptoms
Method: (§1) To further evaluate resistance of the IGPD-overexpressing line IGPD-G, plants were grown in the greenhouse and treated with various concentrations of the inhibitor IRL 1803. After treatment, plants were photographed, and their health was visually scored.

Xanthi (untransformed) = assay: as above; assay type: in vivo, Nicotiana tabacum cv. Xanthi-nc; parameters: key: 1 = severe stunting, severe chlorosis combined with necrosis; 2 = severe stunting, some interveinal chlorosis; 3 = moderate stunting, some interveinal chlorosis, pinnate leaves; 4 = moderate stunting, normal leaf morphology; 5 = healthy, with no symptoms
Method: as §1

wheat germ IGPD = assay: IGPD enzyme activity / inhibitor assay with purified wheat germ IGPD; assay type: biochemical
Method: Purified IGPD may be used in assays to discover novel inhibitors of the enzyme, which inhibitors potentially would function as commercially viable herbicides. Typically, the inhibitory effect of a chemical on IGPD is determined by the absorbance difference at 370 nm using an absorbance coefficient of 10,400, which signifies the production of IAP from IGP. See, Ames et al., J. Biol. Chem. 212:687-697 (1957). Inhibitor solutions in various concentrations, e.g. 1 mM, 100 μM, 10 μM, and 1 μM, are added to the reaction mixture prior to the initiation of the enzyme reaction. A representative reaction mixture contains 50 mM Bis-Tris-propane-HCl (pH 6.6), 100 mM 2-mercaptoethanol, 1 mM MnCl2, 1 mM IGP, and between 2 and 5 mU of IGPD. Once IGP is added, the reaction is rim at 30° C., and is stopped by the addition of perchlorie acid up to 10% volume of the reaction mixture. […] Five volumes of 5N NaOH are added to the solution, and after two minutes, enolized IA is measured spectroscopically. […]
IGPD activity was determined by measuring imidazoleacetol obtained by hydrolyzing IAP. […] Five volumes of 5N NaOH were added to the solution, and after 2 minutes, the concentration of enolized imidazoleacetol was determined from the absorbance at 370 nm using the absorbance coefficient of 10,400 (Ames and Mitchell, 1955). […]

## O=P(O)(O)C1CCCC(O)(c2ncn[nH]2)C1 (stereo not shown)
[1]
  resistance to the inhibitor relative to wild type, non-transformed plants (leaf disk weight): approximately 3 fold

## O=P(O)(O)[C@@H]1CCC[C@](O)(c2ncn[nH]2)C1 [IRL 1803]
[2]; 1000 ppm
  Visual Score after Treatment: 4
[2]; 10000 ppm
  Visual Score after Treatment: 2
Xanthi (untransformed); 1000 ppm
  Visual Score after Treatment: 3
Xanthi (untransformed); 10000 ppm
  Visual Score after Treatment: 1

## [Mn+2] [manganese ions]
Wheat germ IGPD; manganese ions at a concentration of 0.5 mM
  enhancement of the activity of the enzyme: 7 fold
Wheat germ IGPD; read-out: Km value for Mn2+
  Km: ~110 µM
